Structures can show the parent of a compound that is named as a salt.
Tests used:
[1] = In vivo pharmacokinetics in dogs (ELISA, NONMEM model, trapezoidal AUC); parameters: species or system dog
Text: Twenty-five adult beagles (n=14; 12 female, 2 male) and hounds (n=11; 9 female, 2 male) that were 1 to 5 years old (median age 1.5 years) and weighed between 6.9 kg and 35.7 kg (median weight=9.46 kg) were used. Normal health status and organ function were confirmed by physical exam and a complete blood count and serum chemistry profile prior to inclusion in the study. None of the animals received any medications in the 2 weeks prior to study. Animals were housed individually (hounds) or in groups of 2 to 4 (beagles), and were fed a commercial diet and water ad libitum throughout the study.
(§1) Two doses of liposome-encapsulated oxymorphone and two equipotent doses of standard pharmaceutical oxymorphone were investigated. One dose of the liposomal vehicle was also investigated to confirm the absence of pharmacodynamic properties of the vehicle. Each dog received only 1 treatment and was then removed from further study. Treatment groups were as follows: Group 1 (n=6) liposome-encapsulated oxymorphone (1.0 mg/kg); Group 2 (n=5) liposome-encapsulated oxymorphone (0.5 mg/kg); Group 3 (n=6) standard pharmaceutical oxymorphone (NUMORPHAN®, Endo Pharmaceuticals Inc., Chadds Ford, Pa.) (0.1 mg/kg); Group 4 (n=6) standard pharmaceutical oxymorphone (0.05 mg/kg); Group 5 (n=2) liposomal vehicle (0.7 ml). Liposome-encapsulated oxymorphone or vehicle were drawn from a stock solution on ice via an 18 gauge needle attached to a 1- or 3-ml syringe and administered subcutaneously slowly via a 23 gauge needle. All injections were made in a shaved area of the thigh such that potential skin reactions to the liposomal preparations could be assessed.
A 1 ml blood sample was collected percutaneously from the left and right cephalic or saphenous veins, in rotating order. In groups 1 and 2 (liposome-encapsulated oxymorphone groups), blood was collected before and 0.5, 1, 2, 4, 8, 12, 16, and 24 hours after drug administration, and daily for 5 days at the same time of day as treatment administration had occurred. In groups 3, 4, and 5 (standard oxymorphone and liposomal vehicle groups), blood was collected before and 0.5, 1, 2, 4, 8, 12, and 24 hours after drug administration. Blood samples were transferred to centrifuge tubes and held on ice for a maximum of 4 hours, then centrifuged at 5° C. for 10 minutes at 5000×g. Serum was stored at −70° C. until analysis.
Oxymorphone concentrations in serum were quantitated using a commercial ELISA (Neogen Inc, Lexington, Ky.).
Plasma oxymorphone concentrations were used in pharmacokinetic model building using a non-linear, mixed effect computer program (NONMEM User's Guides, (1989-98) Beal and Sheiner (Eds.) GloboMax, LLC, Hanover, Md.). The data from all animals were evaluated concurrently. The assumption was made that the subcutaneous injection of the standard and liposomal oxymorphone delivered drug to an extravascular compartment from which unidirectional absorption into the blood occurred. In the case of the liposomal preparation, an additional, unidirectional rate constant of flux from the liposome to the surrounding subcutaneous compartment was assumed.
This was tested in the pharmacokinetic model construction with allowance for a variable (fitted) fraction of the liposomal dose administered directly to the subcutaneous space in the aqueous carrier.
The NONMEM model included an intersubject variability for the parameters of distribution volume, fraction of drug delivered to of the liposome, and drug flux into and out of the plasma. The first-order rate of drug loss from the liposome was assumed to be a physiochemical constant, and was not allowed to vary between animals. Animal weight and sex were tested as continuous and categorical covariates affecting volume and clearance. Pharmacokinetic models that included a tissue distribution compartment were over-parameterized and were discarded. […]

dogs = test: Sedation score, heart rate, respiratory rate, temperature and skin reaction in dogs; type: in vivo, dog
Experimental: as §1
A sedation score was recorded on each dog prior to drug administration and at the same times as venous blood collection. The sedation score included recording of heart rate by auscultation, respiratory rate by observation of movement of the thoracic wall, and rectal temperature via a digital rectal thermometer. The same person assessed sedation scores throughout the study. Changes in sedation score, heart rate, respiratory rate, and temperature were analyzed using repeated measures ANOVA, with p<0.05 considered significant.

CN1CC[C@]23c4c5ccc(O)c4O[C@H]2C(=O)CC[C@@]3(O)[C@H]1C5 [standard oxymorphone, oxymorphone hydrochloride]
AUC (dose-normalised, median) ([1]; 0.05 mg/kg): 128.0 (ng-hr/L)/mg/kg)
K23 (from subcutaneous tissue to systemic tissue) ([1]; 0.05 mg/kg): 0.400 h⁻¹
K30 (from systemic tissue to excretion from body) ([1]; 0.05 mg/kg): 5.40 h⁻¹
V ([1]; 0.05 mg/kg): 2.03 L
AUC (dose-normalised, median) ([1]; 0.1 mg/kg): 135.9 (ng-hr/L)/mg/kg)
K23 (from subcutaneous tissue to systemic tissue) ([1]; 0.1 mg/kg): 0.348 h⁻¹
K30 (from systemic tissue to excretion from body) ([1]; 0.1 mg/kg): 7.19 h⁻¹
V ([1]; 0.1 mg/kg): 1.50 L
time of peak sedation score (dogs; 0.05 and 0.1 mg/kg): 30 min
respiratory rate and rectal temperature compared to baseline (dogs; either dose): moderate and statistically insignificant decrease
local skin reactions at the site of injection (dogs; s.c.): no local skin reactions
heart rate from baseline to 2 hours after drug administration (dogs; within clinically normal range): significant decrease

From patent publication US20030157162A1, “Liposome-encapsulated opioid analgesics” (priority 2002, published 2003)
